Data from paper PMC4550094 (Journal of biomolecular screening, 2013).
Like-named read-outs stand apart in the source and are kept apart here.

Legend:
HepG2 cells = assay: LipidTOX Red PLD assay, qHTS, 1536-well high-content imaging; format: cell-based, Human; settings: for EC50: Homo sapiens, HepG2, 24 h
isolated lamellar bodies = settings: Binding study; cited from earlier work

Q: For `CC(CN(C)C)CN1c2ccccc2CCc2ccccc21` (stereo not shown) [Trimipramine], which “PLD induction (result in words)” value (HepG2 cells; HepG2, primary screen and cherry-pick confirmation) is on record?
A: The value was “induce PLD”.

Q: What about the EC50 (HepG2 cells; read-out: Confirmation EC50 (PLD induction)) of the same compound?
A: The EC50 was 8.7 ± 1.2 µM.

Q: What about the EC50 (HepG2 cells; read-out: Primary Screen EC50 (PLD induction)) of the same compound?
A: Its EC50 is 3.5 µM.

Q: What about the “Literature-Reported: Active at (concentration)” value (isolated lamellar bodies) of the same compound?
A: The value was “Active at 1 mM”.
